The results in this text go back to PubChem BioAssay (NCI).

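All cell lines were grown in 96-well plates and treated with compound for 48 hours. At the TGI there is no net growth.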

Some test systems named below: K-562 leukemia; SW-620 colon; SNB-75 CNS; SR leukemia; NCI-H522 lung; LOX IMVI melanoma; CCRF-CEM leukemia; NCI/ADR-RES ovarian; IGROV1 ovarian; PC-3 prostate; OVCAR-3 ovarian; OVCAR-4 ovarian; U251 CNS; MOLT-4 leukemia; BT-549 breast; HS 578T breast; SN12C renal; MDA-N; NCI-H460 lung.
What all share (assay): NCI-60 cell line screen, 48 h

As for `CC1(C)CN=C(Nc2ccc(F)c(F)c2)S1`, the TGI in the assay on K-562 leukemia, with SW-620 colon, in the assay with SNB-75 CNS, in the assay with SR leukemia, in the assay on NCI-H522 lung and in the assay with LOX IMVI melanoma was > 100 µM in each case. Also, the TGI with CCRF-CEM leukemia, in the assay on NCI/ADR-RES ovarian, with IGROV1 ovarian, in the assay on PC-3 prostate, with OVCAR-3 ovarian and with OVCAR-4 ovarian was > 100 µM each time. The TGI in the assay with U251 CNS, in the assay on MOLT-4 leukemia, with BT-549 breast, in the assay with HS 578T breast, with SN12C renal and in the assay on MDA-N was > 100 µM in each case.
For the compound `CN(C)c1ccc(C(=NN)c2ccc(N(C)C)cc2)cc1`, the TGI with K-562 leukemia was > 56.9 µM; with SW-620 colon, > 100 µM; with SNB-75 CNS, 2.83 µM; with SR leukemia, > 100 µM; in the assay with NCI-H522 lung, 18.7 µM; in the assay on LOX IMVI melanoma it was > 100 µM. For the same compound, the TGI is 3.41 µM in the assay on CCRF-CEM leukemia; 0.672 µM in the assay on NCI/ADR-RES ovarian; > 100 µM in the assay with IGROV1 ovarian; > 23.5 µM with PC-3 prostate; > 100 µM in the assay with OVCAR-4 ovarian; 9.21 µM in the assay on U251 CNS. In addition, the TGI is > 100 µM in the assay on BT-549 breast, > 100 µM in the assay on HS 578T breast, > 100 µM in the assay on SN12C renal and 24.4 µM in the assay on MDA-N.
Consider `O=C1C(Cl)C(c2cc3cc(Br)ccc3nc2Cl)N1c1c(Cl)cccc1Cl` (stereo not given), for which the TGI in the assay on K-562 leukemia was 18 µM; with SW-620 colon it was > 25 µM; in the assay on SNB-75 CNS, > 25 µM; with SR leukemia, 10.7 µM; in the assay on NCI-H522 lung, 11.3 µM; in the assay on LOX IMVI melanoma, 7.96 µM. The TGI in the assay on CCRF-CEM leukemia was 20 µM; in the assay with NCI/ADR-RES ovarian, > 25 µM; with IGROV1 ovarian, > 25 µM; in the assay on PC-3 prostate it was > 25 µM; with OVCAR-3 ovarian, > 25 µM; in the assay on OVCAR-4 ovarian it was 11.4 µM. Further, the TGI with NCI-H460 lung was > 25 µM; with MOLT-4 leukemia, 11.4 µM; with BT-549 breast, > 25 µM; in the assay with HS 578T breast, > 25 µM; with SN12C renal, > 25 µM; in the assay with MDA-N, > 25 µM.
As for `BrCC(Br)(c1ccccc1)c1ccccc1-c1cc(-c2ccccc2)cc(-c2ccccc2)n1` (stereo not given), the TGI is 8.69 µM in the assay with K-562 leukemia; 14.2 µM with SW-620 colon; 4.08 µM in the assay with SNB-75 CNS; > 52.7 µM in the assay with SR leukemia; 10.5 µM in the assay on NCI-H522 lung; 5.88 µM with LOX IMVI melanoma. The TGI in the assay on CCRF-CEM leukemia is > 53.3 µM; with NCI/ADR-RES ovarian, > 100 µM; in the assay on IGROV1 ovarian it was 19.4 µM; with PC-3 prostate, 10.6 µM; in the assay with OVCAR-4 ovarian, 53.9 µM; in the assay on U251 CNS, 5.85 µM. The TGI in the assay with NCI-H460 lung was determined as 11.9 µM; in the assay with MOLT-4 leukemia, 17.3 µM; in the assay with BT-549 breast it was 10.1 µM; in the assay on HS 578T breast, 26 µM; in the assay with SN12C renal, 28 µM; with MDA-N, 10.9 µM.
On to `Cn1c(-c2ccc(N=NNc3ccc(-c4n[nH]c(=S)n4C)cc3)cc2)n[nH]c1=S`, for which the TGI was > 100 µM in the assay on K-562 leukemia; > 100 µM in the assay on SW-620 colon; 35.1 µM in the assay on SNB-75 CNS; > 100 µM with SR leukemia; > 100 µM in the assay with NCI-H522 lung; > 100 µM in the assay with LOX IMVI melanoma. Besides, the TGI with CCRF-CEM leukemia was > 100 µM; in the assay on NCI/ADR-RES ovarian it was > 100 µM; in the assay on IGROV1 ovarian, 46.4 µM; in the assay with PC-3 prostate, > 100 µM; with OVCAR-3 ovarian, > 100 µM; in the assay on OVCAR-4 ovarian it was > 100 µM. The TGI was 28.9 µM in the assay on U251 CNS; > 100 µM in the assay on MOLT-4 leukemia; 12.6 µM with BT-549 breast; > 100 µM with HS 578T breast; > 100 µM in the assay with SN12C renal; > 100 µM in the assay on MDA-N.
For `O=C1NC(S(=O)(=O)O)=NNC12c1ccccc1-c1ccccc12`, the TGI in the assay with K-562 leukemia, in the assay on SW-620 colon, in the assay on SNB-75 CNS, in the assay on SR leukemia, in the assay with NCI-H522 lung and in the assay with LOX IMVI melanoma was > 10 µM each time. For the same compound, the TGI in the assay on CCRF-CEM leukemia, with NCI/ADR-RES ovarian, with IGROV1 ovarian, in the assay on PC-3 prostate, with OVCAR-4 ovarian and in the assay with NCI-H460 lung was > 10 µM throughout. Further, the TGI in the assay with MOLT-4 leukemia, in the assay on BT-549 breast, in the assay with HS 578T breast, in the assay with SN12C renal and in the assay on MDA-N was > 10 µM each time.
With `CC(=O)OCC(OC(C)=O)C(OC(C)=O)C(OC(C)=O)C(/C=N\Nc1nc2ccccc2c(=O)[nH]1)=N/Nc1nc2ccccc2c(=O)[nH]1` (stereo not given), the TGI in the assay on K-562 leukemia, in the assay with SW-620 colon, in the assay with SNB-75 CNS, with SR leukemia, in the assay with NCI-H522 lung and in the assay on LOX IMVI melanoma was > 100 µM in each case. Besides, the TGI in the assay with CCRF-CEM leukemia, in the assay with NCI/ADR-RES ovarian, in the assay with PC-3 prostate, in the assay with OVCAR-3 ovarian, in the assay with U251 CNS and in the assay on NCI-H460 lung was > 100 µM in each case. Also, the TGI in the assay on MOLT-4 leukemia, in the assay on BT-549 breast, with HS 578T breast, in the assay on SN12C renal and in the assay with MDA-N was > 100 µM throughout.
With `CC(Oc1ccccc1Cl)C(=O)NN1C(=O)CSC1c1ccc(Cl)cc1` (stereo not given), the TGI with K-562 leukemia turned out to be 30.6 µM; in the assay with SW-620 colon it was 55.2 µM; in the assay with SNB-75 CNS, 45.4 µM; in the assay on SR leukemia, 22.9 µM; with NCI-H522 lung, 32.8 µM; with LOX IMVI melanoma, 39 µM. The TGI with CCRF-CEM leukemia came out at 0.381 µM; in the assay with NCI/ADR-RES ovarian, 61.4 µM; with IGROV1 ovarian, 43 µM; in the assay on PC-3 prostate it was 38.2 µM; with OVCAR-3 ovarian, 61.9 µM; in the assay on OVCAR-4 ovarian, 29.3 µM. In addition, the TGI with U251 CNS came to 31.6 µM; with NCI-H460 lung it was 59.8 µM; with BT-549 breast, 45.1 µM; in the assay on HS 578T breast it was 46.3 µM; in the assay on SN12C renal, 28 µM; in the assay with MDA-N, 29.8 µM.
